Here are results for 24 molecules from PubChem BioAssay (NCI).

Experiment in all cases: inhibition of tumour cell growth, NCI panel, 48 h
In experiment [1] the test system is K-562 leukemia.
In experiment [2] the test system is SK-MEL-2 melanoma.
Experiment [3] deals with TK-10 renal.
Experiment [4] deals with SF-268 CNS.
The subject of experiment [5] is A498 renal.
The subject of experiment [6] is 786-0 renal.
For experiment [7], the system named is MALME-3M melanoma.
Experiment [8] deals with UO-31 renal.
For experiment [9], the system named is NCI-H522 lung.

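Dose response: 5 concentrations. Exposure: 48 h. Format: 96-well plates. Endpoint: linear interpolation; highest concentration if not reached. TGI: total growth inhibition.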 Some results are limits rather than exact numbers.

As for `O=S1(=O)c2ccccc2N=C(c2ccccc2Cl)CC1c1ccc(F)cc1` (centres undefined), the TGI is 34.6 µM in [1]; 35.9 µM in experiment [2]; 50.4 µM in [3]; 47.4 µM in experiment [4]; 35.7 µM in experiment [5]; 30.5 µM in experiment [6]. Besides, the TGI in experiment [7] turned out to be 36.8 µM; in [8] it was 28.6 µM; in [9] it was 26.9 µM.
On to `CC(=O)NC(CCCN(Cc1ccccc1)C(=O)N(C)N=O)C(=O)NCc1ccccc1` (centres undefined), for which the TGI in experiment [1], in experiment [2], in experiment [3], in [4], in experiment [5] and in [6] was over 100 µM throughout. Also, the TGI in experiment [7], in [8] and in [9] was over 100 µM throughout.
`C#CCOCn1cnc2ncnc(N)c21`: the TGI in [1], in experiment [2], in experiment [3], in [4], in experiment [5] and in experiment [6] was over 100 µM in each case. For the same molecule, the TGI in [7], in experiment [8] and in [9] was over 100 µM in each case.
Turning to `CN(C)CN(C)c1nc(N(C)C)nc(N(C)CN(C)C)n1`, the TGI in [1] was 67.3 µM; in [2], 42.6 µM; in experiment [3] it was over 100 µM; in [4] it was over 100 µM; in experiment [5] it was over 100 µM; in experiment [6], over 100 µM. In addition, the TGI in experiment [8] and in experiment [9] was over 100 µM in each case.
For `COc1cc(C(C#N)NNc2nc(C)cc(=O)[nH]2)cc(OC)c1OC` (centres undefined), the TGI in experiment [1], in experiment [2], in experiment [3], in [4], in [6] and in experiment [7] was over 100 µM throughout. Moreover, the TGI in experiment [8] and in [9] was over 100 µM throughout.
Regarding `O=C(/C=C/C1C(=O)NC(=O)NC1=O)CC(=O)C(=O)Nc1cc(Cl)c(Cl)cc1Cl`, the TGI in experiment [1], in experiment [2], in experiment [3], in [4], in experiment [5] and in [6] was over 100 µM each time. For the same molecule, the TGI in experiment [7], in experiment [8] and in experiment [9] was over 100 µM throughout.
As for `c1ccc(-c2ccnc3c2ccc2c(-c4ccccc4)ccnc23)cc1`, the TGI came to 11.4 µM in experiment [1]; 11.4 µM in experiment [2]; 0.994 µM in [3]; 13.3 µM in [4]; 6.99 µM in [5]; 10.4 µM in experiment [6]. The TGI stood at 13.5 µM in experiment [7], 4.91 µM in experiment [8] and 5.92 µM in experiment [9].
As to `CC(C)(C)Sc1nnc(SC(C)(C)C)c2c(=O)[nH]nc(SC(C)(C)C)c12`, the TGI in [1] stood at 26.8 µM; in experiment [3], 37.8 µM; in experiment [4] it was 21.2 µM; in [5], 27.1 µM; in experiment [6], 22.3 µM; in [7], 26.2 µM. Further, the TGI in [8] was determined as 19.7 µM; in [9], 14.2 µM.
For `C/C(=N\NS(=O)(=O)c1ccc([N+](=O)[O-])cc1)c1ccc[n+]([O-])n1`, the TGI in experiment [1] was over 65.4 µM; in [2], 3.84 µM; in experiment [3], 25.9 µM; in experiment [4], 7.65 µM; in experiment [5], 4 µM; in experiment [6], 15.6 µM. Moreover, the TGI in experiment [7] was 9.45 µM; in [8] it was 6.74 µM; in experiment [9], 4.51 µM.
On to `CCOC(=O)CC(NC(=O)c1ccc(N=NN(C)C)cc1)C(=O)OCC` (centres undefined), for which the TGI in experiment [1], in [2], in experiment [3], in experiment [4], in [5] and in [6] was over 100 µM in each case. The TGI in experiment [7], in experiment [8] and in experiment [9] was over 100 µM throughout.
In the case of `O=c1c2ccccc2nc(-c2ccccc2)n1NC(=S)Nc1cccc(Cl)c1`, the TGI in [1], in [2], in [3], in experiment [4], in experiment [5] and in [6] was over 100 µM each time. Moreover, the TGI in [7], in [8] and in [9] was over 100 µM in each case.
Regarding `COc1ccc(C)cc1C1CCC(=O)O1` (centres undefined), the TGI in experiment [1], in [2], in [3], in [5], in [6] and in experiment [7] was over 100 µM in each case. For the same molecule, the TGI in [8] and in experiment [9] was over 100 µM throughout.
With `O=C1CCC(=O)c2sccc2N1`, the TGI in [1], in [2], in experiment [3], in experiment [4], in [5] and in experiment [6] was over 100 µM throughout. Further, the TGI in experiment [7], in experiment [8] and in experiment [9] was over 100 µM each time.
For `Cn1nc(-c2ccccc2)c(C(=O)/C=C/c2ccc(Cl)cc2)c(N2CCCC2)c1=O`, the TGI in [1] was 9.06 µM; in experiment [3], 26.6 µM; in [4] it was 20.2 µM; in [6], 13.5 µM; in [8], 21.5 µM; in experiment [9], 6.45 µM.
As for `COc1ccc2c(c1)c1c3n2CCNN=C3CCC1`, the TGI in experiment [1] was over 100 µM; in experiment [2] it was over 100 µM; in [3] it was over 86.9 µM; in experiment [4], over 100 µM; in [5], over 100 µM; in experiment [6], over 100 µM. Further, the TGI in [7], in experiment [8] and in experiment [9] was over 100 µM in each case.
On to `CCCCNC1=C(C(=O)OCC)/C(=N/NC(=O)c2ccccc2O)CO1`, for which the TGI in [1], in [2], in experiment [3], in [4], in experiment [5] and in [6] was over 100 µM each time. In addition, the values for the TGI in experiment [7], in experiment [8] and in experiment [9] were over 100 µM, 28.1 µM and 57.8 µM, respectively.
Consider `COC(=O)C(C(=O)C(N)=O)c1csc(-n2nc(-c3ccccc3)cc2-c2ccccc2)n1` (centres undefined), for which the TGI in [1], in experiment [2], in experiment [3], in experiment [4], in experiment [5] and in experiment [6] was over 31.6 µM in each case. Further, the TGI in experiment [7] was over 31.6 µM; in experiment [8] it was 28.9 µM; in [9], over 31.6 µM.
Consider `c1ccc(-c2nnc3nn4c(-c5ccccc5)cnnc4c3c2-c2ccccc2)cc1`, for which the TGI was over 100 µM in [1]; over 100 µM in experiment [2]; 83.1 µM in experiment [3]; over 100 µM in experiment [5]; 25.8 µM in [6]; over 100 µM in experiment [7]. The TGI in experiment [8] is 75.1 µM.
As to `COC(=O)C(=O)C(C(=O)C(=O)Nc1cc(Cl)c(Cl)cc1Cl)c1nc2ccc([N+](=O)[O-])cc2[nH]c1=O` (centres undefined), the TGI in experiment [1], in experiment [2], in experiment [3], in experiment [4], in experiment [6] and in experiment [7] was over 100 µM in each case. The TGI in experiment [8] and in experiment [9] was over 100 µM in each case.
Consider `Cc1ccc(/C=N/NS(=O)(=O)c2ccccc2)c(C)c1`, for which the TGI in [1], in experiment [2], in experiment [3], in [4], in experiment [5] and in [6] was over 100 µM throughout. Besides, the TGI in experiment [7] and in experiment [8] was over 100 µM in each case.
As for `Cc1ccc(S(=NS(=O)(=O)c2ccc(C)cc2)c2ccc(C)cc2)cc1`, the TGI in [1], in experiment [3], in experiment [4], in experiment [6], in experiment [7] and in [8] was over 100 µM each time.
Turning to `Cc1ccc2nc(NC(=O)C(=O)CC(=O)c3cccc4ccccc34)sc2c1`, the TGI in experiment [1] was over 100 µM; in experiment [2] it was over 100 µM; in experiment [3], 44.6 µM; in [4], over 100 µM; in experiment [5], over 100 µM; in experiment [6] it was 39.3 µM. Moreover, the TGI is 70.2 µM in experiment [7] and over 100 µM in experiment [8].
In the case of `C/C(CC(=O)Nc1cccc([N+](=O)[O-])c1)=N\NC(=O)CC#N`, the TGI in [1], in experiment [2], in [3], in experiment [4], in [6] and in [7] was over 100 µM each time. Besides, the TGI in experiment [8] and in experiment [9] was over 100 µM each time.
In the case of `O=CCCCC(Sc1ccccc1)Sc1ccccc1`, the TGI in experiment [1] is 76.6 µM; in experiment [2] it was 42.7 µM; in [3], over 100 µM; in [4], 43.3 µM; in experiment [5] it was over 100 µM; in [6], 46 µM. Also, the TGI is 66.8 µM in experiment [8] and over 100 µM in experiment [9].
